These are literature values, as cited in publication PMC10468453, “First-in-human study of a novel cell death tracer [^99mTc]Tc-Duramycin: safety, biodistribution and radiation dosimetry in healthy volunteers” (EJNMMI Radiopharmacy and Chemistry, 2023).

For the data set the following is noted: humans; ref Challapalli et al. [2013]; Doss et al. [2013]; Hoglund et al. [2011]; Kemerink et al. [2003]; Quinn et al. [2016]. The text has this: We determined the mean effective dose of [^99mTc]Tc-Duramycin as 7.6 µSv/MBq, corresponding to a total effective dose of 3.60 mSv for a patient dose of 473 MBq.

For the molecule `O=C[C@H]([18F])[C@@H](O)[C@H](O)[C@H](O)CO` [[^18F]FDG, 2-[^18F]fluoro-2-deoxy-D-glucose], the Effective dose was 9.0 mSv.
Take `O=C1C(=O)N(Cc2cn(CC[18F])nn2)c2ccc(S(=O)(=O)N3CCCC3COc3ccc(F)cc3F)cc21` (stereo not drawn) [[^18F]ICMT-11]: the Effective dose is given as 12.5 mSv.
Regarding “[^99mTc]HYNIC-annexin V: radiolabeled annexin V, a phosphatidylserine-binding protein”, the Effective dose is 5.5 mSv.
